Test results from PubChem BioAssay (NCI).
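Assay format: 96-well plates, 48-hour exposure. GI50 marks 50% less growth. At the TGI there is no net growth.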

Experiments:
Assay in all cases: growth of human tumour cells (NCI), 48 h
[1] = tested on: EKVX NSCLC
[2] = tested on: HOP-92 NSCLC
[3] = tested on: HT29 colon
[4] = tested on: MDA-MB-231 breast
[5] = tested on: OVCAR-5 ovarian
[6] = tested on: SF-295 CNS
[7] = tested on: SK-MEL-2 melanoma
[8] = tested on: SK-MEL-28 melanoma
[9] = tested on: SR leukemia
[10] = tested on: UACC-257 melanoma

Compound	TGI [1] [µM]	TGI [2] [µM]	TGI [3] [µM]	TGI [4] [µM]	TGI [5] [µM]	TGI [6] [µM]	TGI [7] [µM]	TGI [8] [µM]	TGI [9] [µM]	TGI [10] [µM]	GI50 [4] [µM]	GI50 [7] [µM]
Cn1c(=O)c2c(nc(NCCCCl)n2CC(=O)O)n(C)c1=O	> 100	> 100	> 100	> 100	> 100	> 100	> 100	> 100	> 100	> 100	–	–
N=C(N)SCCON1C(=O)c2ccccc2C1=O	> 100	> 100	> 100	> 100	> 100	> 100	> 100	> 100	> 100	> 100	–	–
Cn1ccnc1S/C(=C\C=C(C#N)C#N)c1ccc(Cl)cc1	13.1	4.18	16.2	15	7.81	11.3	> 45.5	–	0.367	5.5	4.15	5.38
CC(=O)O/C=C\OC1CCCC1(c1ccccc1)c1ccccc1 (configuration not stated)	20.7	3.89	8.71	5.51	15.3	23	12.5	4.59	4.93	13.6	–	–
Brc1ccc(N=NN2CCCCC2)cc1	> 100	> 100	–	> 100	> 100	> 100	45.4	–	41.7	> 100	–	–
Cc1ccc(S(=O)(=O)N/C(=C\C=C\c2ccccc2)C(=O)C(C)(C)C)cc1	> 100	71.9	> 100	> 100	> 100	> 100	> 100	> 100	> 100	> 100	–	–
CC(C)Oc1c(-c2c(OC(C)C)c(=O)c2=O)c(=O)c1=O	> 64.9	> 100	> 58.3	> 57.2	> 100	> 100	> 89.1	> 100	> 100	> 100	–	–
CCC(CCCN)Nc1cc(OC)cc2cccnc12 (configuration not stated)	> 100	> 100	> 100	> 100	> 100	> 100	> 100	> 100	> 100	62.8	–	–
CCC(C)[C@H](NC(=O)N[C@H](C)c1ccccc1)C(=O)OC (some centres not stated)	> 100	> 100	> 100	> 100	> 100	> 100	> 100	> 100	> 100	> 100	–	–
COC(=O)c1cc(C)ccc1CC(Cc1cccc(C)c1)C(=O)OC (configuration not stated)	> 100	> 100	> 100	> 100	> 100	> 100	> 100	> 100	> 100	> 100	–	–
COC(=O)Cc1ccc2c(c1)Sc1ccc(CC(=O)OC)cc1N2C	> 100	> 100	> 100	> 100	> 100	> 87.1	> 100	> 100	> 79.1	> 93	–	–
Cc1c(C)c(C)c(-n2[nH]c(=O)n(C)c2=O)c(C)c1C	> 100	> 100	> 100	> 100	> 100	> 100	> 100	> 100	> 100	> 100	–	–
O=c1[nH]nc(Cc2ccccc2)n1/N=C/c1c[nH]c2ccccc12	> 100	> 100	> 100	> 100	> 100	> 100	> 100	> 100	> 100	> 100	–	–
CCN(CC)Cc1nc2sc3c(c2c(=O)n1-c1ccccc1)CCCC3	79.9	51.4	29.3	30.4	63.1	66.3	38.6	> 100	> 100	47.5	–	–
CC1(C)OC2OC(COC(=O)C=[N+]=[N-])C3OC(C)(C)OC3C2O1 (configuration not stated)	> 100	> 100	> 100	> 100	> 100	> 100	> 100	> 100	> 100	> 100	–	–
CN1CC2=C(OC(N)=C(C#N)C2c2cccs2)/C(=C/c2cccs2)C1 (configuration not stated)	> 60.2	> 100	> 78.3	> 100	> 100	> 100	> 64.4	> 100	> 100	> 100	–	–
COC(=O)CCCc1ccc2c(c1)CC1(C2)Cc2cc3c(cc2C1)CCCC3	> 100	85.1	> 100	> 100	> 100	> 100	57.1	–	0.713	> 100	–	–
CC(C)(CN)CN	> 100	> 100	> 100	> 100	> 100	> 100	> 100	> 100	> 100	> 100	–	–
Cc1nc2ccc(S(=O)(=O)Nc3ccc(Cl)cc3)cc2c(=O)n1NC(=O)CNc1ccc(Cl)cc1	> 100	> 100	> 100	> 100	> 100	> 100	> 100	> 100	> 100	> 100	–	–
COc1ccc2c(c1)OC(c1cccnc1)C(c1ccccc1)C2=O (configuration not stated)	> 100	> 100	> 100	> 100	> 100	> 100	> 100	> 100	> 100	> 100	–	–
COC(=O)/C=C\Sc1ccn(/C=C\C(=O)OC)c(=S)n1	68.2	47.7	52.9	56.7	> 100	–	46.9	> 100	38.8	> 100	–	–
